This is an account of results in patent US20240150338A1, “COMPOUNDS AND USE THEREOF FOR TREATMENT OF NEURODEGENERATIVE, DEGENERATIVE AND METABOLIC DISORDERS” (University of Florida Research Foundation, Incorporated, priority 2021, published 2024).

The test system of data set [1] is PK1 neuroblastoma cells exposed to TPrP. Nature of the data set: cells. The following applies: Neuroblastoma cell, 96 h, read-out: TPrP EC50. The class given is cell-based.
A short description of data set [2]: Microsomal stability assay. To be noted: 1 mg/ml human hepatic microsomes, 37° C., half-life by LC-MS/MS; yes = stability ≥15 minutes. It is filed as in vitro ADME. Here is the method:
The metabolic stability of some test compounds was determined in hepatic human and mouse microsomes. The compound was incubated with 1 mg/ml human or mouse hepatic microsomes at 37° C. with continuous shaking. Aliquots were removed at various time points between 5 minutes and 2 hours and acetonitrile was added to quench the reactions and precipitate the proteins. Samples were then centrifuged through 0.45 μm filter plates and half-lives were determined by LC-MS/MS.

Where only a bound is given, the exact number is not on record here.

`Cc1cc(-c2nc(Nc3ccc(S(C)(=O)=O)cc3)sc2CO)ccn1` [SR-33799, (4-(2-Methylpyridin-4-yl)-2-((4-(methylsulfonyl)phenyl)amino)thiazol-5-yl)methanol]: the EC50 (in general, the concentration giving half of the maximal effect) in data set [1] was 60 nM. The “Stabilty in human microsomes ≥ 15 minutes” value (from here on “Stabilty”) in data set [2] is “yes”.
Regarding `COc1cc(-c2nc(Nc3ccc(S(C)(=O)=O)c(Cl)c3)sc2CO)cc(OC)n1` [SR-33800, (2-((3-Chloro-4-(methylsulfonyl)phenyl)amino)-4-(2,6-dimethoxypyridin-4-yl)thiazol-5-yl)methanol], the EC50 in data set [1] worked out at 55 nM. Also, the “Stabilty” value in data set [2] is reported as “yes”.
For `Cc1cc(-c2nc(Nc3ccc(S(=O)(=O)O)cc3)sc2CO)cc(C)n1` [SR-33801, 4-((4-(2,6-Dimethylpyridin-4-yl)-5-(hydroxymethyl)thiazol-2-yl)amino)benzenesulfonic acid], in data set [1], the concentration giving a half-maximal response (EC50) worked out at 40 nM. In addition, the “Stabilty” value in data set [2] is listed as “yes”.
As for `O=S(=O)(O)c1ccc(Nc2nc(-c3ccncc3)c(CO)s2)cc1` [SR-33878, 4-((5-(Hydroxymethyl)-4-(pyridin-4-yl)thiazol-2-yl)amino)benzenesulfonic acid], the 50% effective concentration (EC50) in data set [1] amounted to 300 nM. Moreover, in data set [2], the “Stabilty” value is “yes”.
Turning to `CC(C)NS(=O)(=O)c1ccc(-c2csc(Nc3ccc(S(N)(=O)=O)cc3)n2)cc1` [SR-34770, N-isopropyl-4-(2-((4-sulfamoylphenyl)amino)thiazol-4-yl)benzenesulfonamide], the EC50 in data set [1] worked out at 300 nM. In addition, the “Stabilty” value in data set [2] was “yes”.
As to `NS(=O)(=O)c1ccc(Nc2nc(-c3ccc(S(=O)(=O)Nc4ccccc4)cc3)c(CO)s2)cc1` [SR-34773, 4-(5-(Hydroxymethyl)-2-((4-sulfamoylphenyl)amino)thiazol-4-yl)-N-phenylbenzenesulfonamide], in data set [1], the EC50 worked out at 300 nM. Also, the “Stabilty” value in data set [2] is recorded as “yes”.
Consider `CC(C)NS(=O)(=O)c1ccc(-c2nc(Nc3ccc(S(N)(=O)=O)cc3)sc2CO)cc1` [SR-34776, 4-(5-(Hydroxymethyl)-2-((4-sulfamoylphenyl)amino)thiazol-4-yl)-N-isopropylbenzenesulfonamide], for which, in data set [1], the 50% effective concentration (EC50) was found to be 100 nM. Moreover, the “Stabilty” value in data set [2] is reported as “yes”.
The corresponding values for `Cc1cc(-c2nc(Nc3ccc(S(C)(=O)=O)cc3)sc2CCl)ccn1` [SR-34893, 5-(Chloromethyl)-4-(2-methylpyridin-4-yl)-N-(4-(methylsulfonyl)phenyl)thiazol-2-amine] are 400 nM and “yes”.
Regarding `CNS(=O)(=O)c1ccc(-c2csc(Nc3ccc(S(C)(=O)=O)cc3)n2)cc1` [SR-34964, N-methyl-4-(2-((4-(methylsulfonyl)phenyl)amino)thiazol-4-yl)benzenesulfonamide], the EC50 in data set [1] worked out at 105 nM. The “Stabilty” value in data set [2] is on record as “yes”.
For the compound `Cc1cc(-c2csc(Nc3ccc(S(C)(=O)=O)c(F)c3)n2)cc(C)n1` [SR-34974, 4-(2,6-Dimethylpyridin-4-yl)-N-(3-fluoro-4-(methylsulfonyl)phenyl)thiazol-2-amine], the EC50 in data set [1] was determined as 100 nM. Moreover, in data set [2], the “Stabilty” value is given as “yes”.
The corresponding values for `CS(=O)(=O)c1ccc(Nc2nc(-c3ccnc(Cl)c3)cs2)cc1C(F)(F)F` [SR-34982, 4-(2-Chloropyridin-4-yl)-N-(4-(methylsulfonyl)-3-(trifluoromethyl)phenyl)thiazol-2-amine] are 120 nM and “yes”.
Regarding `Cc1cc(-c2csc(Nc3ccc(S(C)(=O)=O)c(C(F)(F)F)c3)n2)cc(C)n1` [SR-34984, 4-(2,6-Dimethylpyridin-4-yl)-N-(4-(methylsulfonyl)-3-(trifluoromethyl)phenyl)thiazol-2-amine], the EC50 in data set [1] came out at 60 nM. Besides, in data set [2], the “Stabilty” value is given as “yes”.
On to `COc1cc(-c2csc(Nc3ccc(S(C)(=O)=O)c(Cl)c3)n2)ccn1` [SR-34993, N-(3-Chloro-4-(methylsulfonyl)phenyl)-4-(2-methoxypyridin-4-yl)thiazol-2-amine], for which the EC50 in data set [1] was found to be 125 nM. The “Stabilty” value in data set [2] is listed as “yes”.
The corresponding values for `CNS(=O)(=O)c1ccc(-c2csc(Nc3ccc(C(F)(F)F)cc3)n2)cc1` [SR-35726, N-methyl-4-(2-((4-(trifluoromethyl)phenyl)amino)thiazol-4-yl)benzenesulfonamide] are 480 nM and “yes”.
As for `CNS(=O)(=O)c1ccc(-c2csc(Nc3ccc(CS(C)(=O)=O)cc3)n2)cc1` [SR-35727, N-methyl-4-(2-((4-((methylsulfonyl)methyl)phenyl)amino)thiazol-4-yl)benzenesulfonamide], the EC50 in data set [1] is 18 nM. Further, the “Stabilty” value in data set [2] is listed as “yes”.
With `CS(=O)(=O)c1ccc(-c2csc(Nc3ccc(S(N)(=O)=O)cc3)n2)cc1` [SR-35729, 4-((4-(4-(Methylsulfonyl)phenyl)thiazol-2-yl)amino)benzenesulfonamide], the EC50 in data set [1] turned out to be 1.6 nM. Also, the “Stabilty” value in data set [2] is “yes”.
For the compound `CS(=O)(=O)c1ccc(Nc2nc(-c3ccc(S(C)(=O)=O)cc3)cs2)cc1` [SR-35730, N,4-bis(4-(methylsulfonyl)phenyl)thiazol-2-amine], in data set [1], the concentration for a half-maximal effect (EC50) is 4 nM. For the same compound, in data set [2], the “Stabilty” value is “yes”.
For the compound `Cc1ccc(-c2csc(Nc3ccc(S(C)(=O)=O)cc3)n2)cc1` [SR-35731, N-(4-(methylsulfonyl)phenyl)-4-(p-tolyl)thiazol-2-amine], the EC50 in data set [1] was more than 500 nM. Besides, the “Stabilty” value in data set [2] was “yes”.
Regarding `CS(=O)(=O)c1ccc(Nc2nc(-c3ccc(C(F)(F)F)cc3)cs2)cc1` [SR-35733, N-(4-(Methylsulfonyl)phenyl)-4-(4-(trifluoromethyl)phenyl)thiazol-2-amine], in data set [1], the EC50 is more than 500 nM. In data set [2], the “Stabilty” value is given as “yes”.
With `CNS(=O)(=O)c1ccc(-c2csc(Nc3ccc(S(C)(=O)=O)c(F)c3)n2)cc1` [SR-35735, 4-(2-((3-Fluoro-4-(methylsulfonyl)phenyl)amino)thiazol-4-yl)-N-methylbenzenesulfonamide], the concentration for a half-maximal effect (EC50) in data set [1] was determined as 6 nM. For the same compound, the “Stabilty” value in data set [2] is recorded as “yes”.
In the case of `CNS(=O)(=O)c1ccc(-c2csc(Nc3ccc(S(C)(=O)=O)c(Cl)c3)n2)cc1` [SR-35736, 4-(2-((3-Chloro-4-(methylsulfonyl)phenyl)amino)thiazol-4-yl)-N-methylbenzenesulfonamide], the EC50 in data set [1] amounted to 5 nM. In addition, in data set [2], the “Stabilty” value is “yes”.
On to `Cc1cc(-c2csc(Nc3ccc(CS(C)(=O)=O)cc3)n2)ccn1` [SR-35786, 4-(2-Methylpyridin-4-yl)-N-(4-((methylsulfonyl)methyl)phenyl)thiazol-2-amine], for which the half-maximal effective concentration (EC50) in data set [1] is 14 nM. In addition, the “Stabilty” value in data set [2] was “yes”.
In the same order, the values of `COc1cccc(-c2csc(Nc3ccc(S(C)(=O)=O)cc3)n2)c1` [SR-35788, 4-(3-Methoxyphenyl)-N-(4-(methylsulfonyl)phenyl)thiazol-2-amine] are 170 nM and “yes”.
On to `CC(C)c1ccc(-c2csc(Nc3ccc(S(C)(=O)=O)cc3)n2)cc1` [SR-35789, 4-(4-Isopropylphenyl)-N-(4-(methylsulfonyl)phenyl)thiazol-2-amine], for which the EC50 in data set [1] is more than 500 nM. Besides, the “Stabilty” value in data set [2] is “yes”.
